# Reference: patent EP3122861B1, “LIQUID DETERGENT COMPOSITIONS COMPRISING AN ALPHA-AMYLASE” (priority 2014, dated 2015)
# Test: Assay for measurement of free calcium ions (calcium ion selective electrode)
# Assay type: physicochemical
# Conditions: pH 8.0, 49 mM EPPS buffer, 80 mM potassium chloride, 21 °C
# Method: The following assay may be used for the measurement of free calcium ions in solution, and thus for the determination of chelating agents (chelants) ability to reduce the concentration of free calcium ions (Ca2+) from e.g. 2.0 mM to 0.10 mM at pH 8.
# Various amounts of chelants are added to a solution of 2.0 mM Ca2+ and the free Ca2+ concentration is determined by using a Calcium Ion Selective Electrode at fixed pH and temperature. The concentration of chelant necessary to reduce the concentration of free calcium from 2.0 mM to 0.10 mM can be determined from a plot of the free calcium concentration measured versus the concentration of chelant. In the present assay the concentration of chelant necessary to reduce the concentration of free calcium from 2.0 mM to 0.10 mM is measured at pH 8, at 21°C, in potassium chloride and 49 mM EPPS.
# Electrolyte solution: 4 M potassium chloride in ultrapure water (Milli-Q water). pH 8 buffer: 50 mM EPPS (4-(2-Hydroxyethyl)piperazine-1-propanesulfonic acid) adjusted to pH 8.0 using minimum amounts of 1 N sodium hydroxide. Calcium stock solution: 25 mM Ca2+ in pH 8 buffer, made from CaCl2.2H2O. Chelant stock solution: 15 mM chelant (on a 100 % dry chelator basis) in pH 8 buffer, re-adjusted to pH 8.0 using minimum amounts of 1 M NaOH or 1 M HCl.
# Calcium Ion Selective Electrode from Thermo Scientific (cat. No. 9720BNWP) calibrated against a Calcium chloride standard solution. The electrode is calibrated as described by the guidelines following the electrode.
# A series of vials are prepared, each containing 4 mL of the calcium stock solution (final concentration 2.0 mM), 1 mL electrolyte solution (final concentration 80 mM potassium chloride), chelant stock solution in various amounts (0 - 45 mL) and using the pH 8 buffer for adjusting the total volume to 50 mL. The final concentration of EPPS in the assay is 49 mM. After mixing, the concentration of free Ca2+ is measured by the calcium electrode. The free calcium concentration should be determined at a sufficient number of different chelant concentrations for each chelant tested, ensuring that the data set covers the entire range from 2.0 mM free calcium ions to a value below 0.10 mM or the final chelant concentration in the assay is higher than 10.0 mM. A suitable number of data points are 8 or more. The chelant concentration required to lower the initial 2.0 mM free calcium ions to 0.10 mM is obtained from a plot of the measured free calcium ion concentration versus chelator concentration by interpolation.
# The solutions are equilibrated to the desired temperature, which in the present assay is 21°C.
# Chelating agents (chelants) may be ranked by their ability to reduce the concentration of free calcium ions (Ca2+) from 2.0 mM to 0.10 mM at pH 8 developed from a method described by M.K.Nagarajan et al., JAOCS, Vol. 61, no. 9 (September 1984), pp. 1475-1478. The assay described above under "Materials and Methods" for measuring of free calcium ions was used. Accordingly, the concentration of chelant necessary to reduce the water hardness from 2.0 mM to 0.10 mM was determined as described above. The experiment was carried out with the pH 8 buffer at 21 °C. Table 12.1: Concentration of free Ca2+ determined in a mixture of 2.0 mM Ca2+ and various amounts of chelating agent at pH 8.
# A number of chelants were characterized using this assay, and the chelator concentrations necessary to reduce the concentration of free calcium ions from 2.0 mM to 0.10 mM at pH 8.0 in 49 mM EPPS buffer and 80 mM potassium chloride are shown below in Table 12.2. This table can thus also be used for comparing the capabilities of the chelating agents for reducing the concentration of free calcium ions. Table 12.2
row,Compound,"chelator concentration to reduce free calcium ions from 2.0 mM to 0.10 mM, Relative to citrate"
1,"O=C(O)CN(CCOCCOCCN(CC(=O)O)CC(=O)O)CC(=O)O [EGTA, ethylene glycol tetraacetic acid]",0.33
2,"O=C(O)CN(CCN(CC(=O)O)CC(=O)O)CC(=O)O [EDTA, ethylene diamine tetraacetate]",0.21
3,"C[C@@H](C(=O)O)N(CC(=O)O)CC(=O)O [MGDA, methylglycinediacetic acid or N,N'-bis(carboxymethyl)alanine]",0.33
4,"CC(O)(P(=O)(O)O)P(=O)(O)O [HEDP, 1-Hydroxyethylidene-1,1-Diphosphonic Acid]",0.20
5,"O=C(O)CN(CCN(CC(=O)O)CC(=O)O)CCN(CC(=O)O)CC(=O)O [DTPA, diethylenetriaminepentaacetic acid]",0.24
6,"O=P(O)(O)CN(CCN(CP(=O)(O)O)CP(=O)(O)O)CCN(CP(=O)(O)O)CP(=O)(O)O [DTMPA, diethylenetriaminepenta(methylene-phosphonic acid)]",0.25
7,O=C(O)CC(O)(CC(=O)O)C(=O)O [Citrate],1.00

# Same assay, conditions: pH 8.0, 49 mM EPPS buffer, 80 mM potassium chloride, 21 °C; by interpolation
row,Compound,chelator concentrations necessary to reduce the concentration of free calcium ions from 2.0 mM to 0.10 mM [mM]
1,"O=C(O)CN(CCOCCOCCN(CC(=O)O)CC(=O)O)CC(=O)O [EGTA, ethylene glycol tetraacetic acid]",2.60
2,"O=C(O)CN(CCN(CC(=O)O)CC(=O)O)CC(=O)O [EDTA, ethylene diamine tetraacetate]",1.90
3,"C[C@@H](C(=O)O)N(CC(=O)O)CC(=O)O [MGDA, methylglycinediacetic acid or N,N'-bis(carboxymethyl)alanine]",2.56
4,"CC(O)(P(=O)(O)O)P(=O)(O)O [HEDP, 1-Hydroxyethylidene-1,1-Diphosphonic Acid]",1.60
5,"O=C(O)CN(CCN(CC(=O)O)CC(=O)O)CCN(CC(=O)O)CC(=O)O [DTPA, diethylenetriaminepentaacetic acid]",1.87
6,"O=P(O)(O)CN(CCN(CP(=O)(O)O)CP(=O)(O)O)CCN(CP(=O)(O)O)CP(=O)(O)O [DTMPA, diethylenetriaminepenta(methylene-phosphonic acid)]",1.17
7,O=C(O)CC(O)(CC(=O)O)C(=O)O [Citrate],8.36

# Test: Determination of log K by ITC (isothermal titration calorimetry)
# Conditions: binding constant of chelator and calcium ions, pH 10
# Description: Chelating agents can also be characterized by the binding constant of the chelating agent (chelator) and calcium ions. This constant can be determined by ITC (isothermal titration calorimetry) as described by AD Nielsen, CC Fuglsang and […], Analytical Biochemistry Vol. 314 (2003) page 227-234 and T Wiseman, S Williston, JF Brandts and L-N Lin, Analytical Biochemistry Vol. 179 (1989) page 131-137. All glassware and plastic bottles used are washed with a 1 % (w/w) EDTA solution and subsequently rinsed thoroughly in Chelex 100 treated ultrapure water (Milli-Q water). Solutions are stored in plastic bottles and kept at 5°C until use. […] • 125 μM chelant in 20 mM HEPES, pH 8 or 125 μM chelant in 20 mM glycine, pH 10 • 4 mM CaCl2 in 20 mM HEPES, pH 8 or 4 mM CaCl2 in 20 mM glycine, pH 10 • Ultrapure water (Milli-Q water) […] All solutions are degassed by stirring under vacuum before the experiments. INSTRUMENT: MCS-ITC (MicroCal Inc., Northampton, MA, USA) The reference cell is filled with ultrapure water (Milli-Q water). The sample cell is filled with the chelant solution at the selected pH and the syringe is filled with the calcium solution at the selected pH. The solutions are equilibrated to the desired temperature, e.g. 19°C. […] The obtained signals from the ITC are then integrated using the Origin software supplied by MicroCal Inc. To obtain the binding isotherms, regression routines are made using the same software package. […] Presently preferred is the "OneSites" model which gives the best fit for most of the commonly used chelating agents, i.e. the residuals are evenly distributed around zero. […] Alternatively, the chelating agents can be characterized by the binding constant of the chelating agent (chelator) and calcium ions. This constant can be determined by ITC (isothermal titration calorimetry) as described by AD Nielsen, CC Fuglsang and […], Analytical Biochemistry Vol. 314 (2003) page 227-234 and T Wiseman, S Williston, JF Brandts and L-N Lin, Analytical Biochemistry Vol. 179 (1989) page 131-137. The procedure for the determination of log K is described in detail above under "Materials and Methods". Using this procedure for determination of log K, the following log K values for several chelating agents were determined at pH 10 (Table 12.3). Table 12.3
row,Compound,Log K
1,"O=C(O)CN(CCOCCOCCN(CC(=O)O)CC(=O)O)CC(=O)O [EGTA, ethylene glycol tetraacetic acid]",9
2,"CC(O)(P(=O)(O)O)P(=O)(O)O [HEDP, 1-Hydroxyethylidene-1,1-Diphosphonic Acid]",6
3,O=C(O)CC(O)(CC(=O)O)C(=O)O [Citrate],3

# The remaining lines, values ahead:
row,Log K,Compound
1,8,"O=C(O)CN(CCN(CC(=O)O)CC(=O)O)CC(=O)O [EDTA, ethylene diamine tetraacetate]"
2,2.56,"C[C@@H](C(=O)O)N(CC(=O)O)CC(=O)O [MGDA, methylglycinediacetic acid or N,N'-bis(carboxymethyl)alanine]"
3,7,"O=C(O)CN(CCN(CC(=O)O)CC(=O)O)CCN(CC(=O)O)CC(=O)O [DTPA, diethylenetriaminepentaacetic acid]"
